Measurements taken from patent US10781224B2, “Bis(oxymethyl)phosphinic acid and biogenic metal salts thereof as regulators of plant growth and development” (priority 2016, dated 2020).

How the values were obtained:
Format in all cases: in vivo
[1] = tested on: winter wheat (Vershin variety); assay: Winter wheat seed treatment with BHMPA salts: germination energy and germination rate
How it was run: (§1)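 Corn, winter wheat and rice seeds (50 per dish, on filter paper) were soaked for 1 h in BHMPA or its metal salts at 1·10^−6-1·10^−12%, with water as control. Germination energy was read on day 4 and germination rate on day 8 for wheat and day 7 for rice and corn, following GOST 12038-84, as the mean of four replicates.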

[2] = tested on: corn (Krasnodar 385 MV variety); assay: Corn seed treatment with BHMPA salts: germination energy and germination rate
How it was run: as §1

[3] = tested on: corn (Krasnodar 385 MV variety); assay: Corn seed treatment with BHMPA salts: germinating power
How it was run: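 Seeds (50 per Petri dish on two layers of filter paper) soaked 1 h in BHMPA or its Ca, Mg, Na, Co, Mn, Cu or Zn salts at 1·10^−6-1·10^−12%, with water controls. Germination energy read on day 4, germination on day 8 (wheat) or day 7 (rice, corn), as % means of four replicates. Germinating power taken as root and sprout length plus wet and dry mass per 100 seedlings.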

[4] = winter wheat Vershin, 1·10^−6% solution
[5] = winter wheat Vershin, 1·10^−7% solution
[6] = winter wheat Vershin, 1·10^−8% solution
[7] = winter wheat Vershin, 1·10^−9% solution
[8] = winter wheat Vershin, 1·10^−10% solution
[9] = winter wheat Vershin, 1·10^−11% solution
[10] = winter wheat Vershin, 1·10^−12% solution
[11] = winter wheat, comparative study vs Melaphen, 1·10^−12% solution
[12] = comparative study vs Melaphen, 1·10^−10% solution
[13] = corn seeds, solution concentration 1 · 10^−10%

O=P([O-])(CO)CO.O=P([O-])(CO)CO.[Ca+2] [Ca-salt, Calcium BHMPA Salt]
Germination energy [1, 4]: 85.3%
Germination rate [1, 4]: 88.0%
Germination energy [1, 5]: 90.8%
Germination rate [1, 5]: 94.3%
Germination energy [1, 6]: 80.9%
Germination rate [1, 6]: 84.0%
Germination energy [1, 7]: 81.2%
Germination rate [1, 7]: 85.3%
Germination energy [1, 8]: 86.1%
Germination rate [1, 8]: 88.0%
Germination energy [1, 9]: 87.0%
Germination rate [1, 9]: 89.3%
Germination energy [1, 10]: 88.9%
Germination rate [1, 10]: 92.0%
Germination energy [1, 11]: 87.0%
Germination rate [1, 11]: 93.7%
Germination energy ([2]; 1·10^−6% solution): 74.3%
Germination rate ([2]; 1·10^−6% solution): 77.0%
Germination energy ([2]; 1·10^−7% solution): 77.3%
Germination rate ([2]; 1·10^−7% solution): 82.0%
Germination energy ([2]; 1·10^−8% solution): 81.8%
Germination rate ([2]; 1·10^−8% solution): 84.2%
Germination energy ([2]; 1·10^−9% solution): 85.0%
Germination rate ([2]; 1·10^−9% solution): 87.7%
Germination energy ([2]; 1·10^−10% solution): 87.8%
Germination rate ([2]; 1·10^−10% solution): 90.0%
Germination energy ([2]; 1·10^−11% solution): 85.5%
Germination rate ([2]; 1·10^−11% solution): 88.3%
Germination energy ([2]; 1·10^−12% solution): 82.3%
Germination rate ([2]; 1·10^−12% solution): 85.0%
Germination energy [2, 12]: 85.0%
Germination rate [2, 12]: 95.3%
optimum concentration for treating corn seeds before sowing ([3]; corn): 1·10^−10%
Length, root [3, 13]: 6.6 cm
Length, root, + % to control [3, 13]: 12%
Length, sprout [3, 13]: 3.2 cm
Length, sprout, + % to control [3, 13]: 18.5%
Mass, dry, root [3, 13]: 2.03 g/100 plantlings
Mass, dry, root, + % to control [3, 13]: 15%
Mass, dry, sprout [3, 13]: 1.47 g/100 plantlings
Mass, dry, sprout, + % to control [3, 13]: 8%
Mass, wet, root [3, 13]: 9.63 g/100 plantlings
Mass, wet, root, + % to control [3, 13]: 10%
Mass, wet, sprout [3, 13]: 8.59 g/100 plantlings
Mass, wet, sprout, + % to control [3, 13]: 21%
Length, root ([3]; corn, 1·10^−6% solution): 4.2 cm
Length, root, + % to control ([3]; corn, 1·10^−6% solution): −7%
Length, sprout ([3]; corn, 1·10^−6% solution): 2.5 cm
Length, sprout, + % to control ([3]; corn, 1·10^−6% solution): −4%
Mass, dry, root ([3]; corn, 1·10^−6% solution): 1.09 g/100 plantlings
Mass, dry, root, + % to control ([3]; corn, 1·10^−6% solution): −2%
Mass, dry, sprout ([3]; corn, 1·10^−6% solution): 0.63 g/100 plantlings
Mass, dry, sprout, + % to control ([3]; corn, 1·10^−6% solution): −9%
Mass, wet, root ([3]; corn, 1·10^−6% solution): 7.30 g/100 plantlings
Mass, wet, root, + % to control ([3]; corn, 1·10^−6% solution): −2.5%
Mass, wet, sprout ([3]; corn, 1·10^−6% solution): 4.21 g/100 plantlings
Mass, wet, sprout, + % to control ([3]; corn, 1·10^−6% solution): −6%
difference from the control in germinating power ([3]; corn, 1·10^−6%, 1·10^−7% and 1·10^−12% solutions): rather insignificant
Length, root ([3]; corn, 1·10^−7% solution): 4.6 cm
Length, root, + % to control ([3]; corn, 1·10^−7% solution): 2%
Length, sprout ([3]; corn, 1·10^−7% solution): 2.7 cm
Length, sprout, + % to control ([3]; corn, 1·10^−7% solution): 4%
Mass, dry, root ([3]; corn, 1·10^−7% solution): 1.20 g/100 plantlings
Mass, dry, root, + % to control ([3]; corn, 1·10^−7% solution): 8%
Mass, dry, sprout ([3]; corn, 1·10^−7% solution): 0.72 g/100 plantlings
Mass, dry, sprout, + % to control ([3]; corn, 1·10^−7% solution): 4%
Mass, wet, root ([3]; corn, 1·10^−7% solution): 7.75 g/100 plantlings
Mass, wet, root, + % to control ([3]; corn, 1·10^−7% solution): 3%
Mass, wet, sprout ([3]; corn, 1·10^−7% solution): 4.67 g/100 plantlings
Mass, wet, sprout, + % to control ([3]; corn, 1·10^−7% solution): 5%
Length, root ([3]; corn, 1·10^−8% solution): 4.8 cm
Length, root, + % to control ([3]; corn, 1·10^−8% solution): 7%
Length, sprout ([3]; corn, 1·10^−8% solution): 2.8 cm
Length, sprout, + % to control ([3]; corn, 1·10^−8% solution): 8%
Mass, dry, root ([3]; corn, 1·10^−8% solution): 1.24 g/100 plantlings
Mass, dry, root, + % to control ([3]; corn, 1·10^−8% solution): 12%
Mass, dry, sprout ([3]; corn, 1·10^−8% solution): 0.85 g/100 plantlings
Mass, dry, sprout, + % to control ([3]; corn, 1·10^−8% solution): 23%
Mass, wet, root ([3]; corn, 1·10^−8% solution): 8.13 g/100 plantlings
Mass, wet, root, + % to control ([3]; corn, 1·10^−8% solution): 8.5%
Mass, wet, sprout ([3]; corn, 1·10^−8% solution): 4.84 g/100 plantlings
Mass, wet, sprout, + % to control ([3]; corn, 1·10^−8% solution): 8.5%
Length, root ([3]; corn, 1·10^−9% solution): 5.2 cm
Length, root, + % to control ([3]; corn, 1·10^−9% solution): 15.5%
Length, sprout ([3]; corn, 1·10^−9% solution): 3.0 cm
Length, sprout, + % to control ([3]; corn, 1·10^−9% solution): 15%
Mass, dry, root ([3]; corn, 1·10^−9% solution): 1.26 g/100 plantlings
Mass, dry, root, + % to control ([3]; corn, 1·10^−9% solution): 13.5%
Mass, dry, sprout ([3]; corn, 1·10^−9% solution): 0.96 g/100 plantlings
Mass, dry, sprout, + % to control ([3]; corn, 1·10^−9% solution): 39%
Mass, wet, root ([3]; corn, 1·10^−9% solution): 9.18 g/100 plantlings
Mass, wet, root, + % to control ([3]; corn, 1·10^−9% solution): 22.5%
Mass, wet, sprout ([3]; corn, 1·10^−9% solution): 4.99 g/100 plantlings
Mass, wet, sprout, + % to control ([3]; corn, 1·10^−9% solution): 12%
Length, root ([3]; corn, 1·10^−10% solution): 5.4 cm
Length, root, + % to control ([3]; corn, 1·10^−10% solution): 20%
Length, sprout ([3]; corn, 1·10^−10% solution): 3.2 cm
Length, sprout, + % to control ([3]; corn, 1·10^−10% solution): 23%
Mass, dry, root ([3]; corn, 1·10^−10% solution): 1.34 g/100 plantlings
Mass, dry, root, + % to control ([3]; corn, 1·10^−10% solution): 21%
Mass, dry, sprout ([3]; corn, 1·10^−10% solution): 1.23 g/100 plantlings
Mass, dry, sprout, + % to control ([3]; corn, 1·10^−10% solution): 78%
Mass, wet, root ([3]; corn, 1·10^−10% solution): 9.82 g/100 plantlings
Mass, wet, root, + % to control ([3]; corn, 1·10^−10% solution): 31%
Mass, wet, sprout ([3]; corn, 1·10^−10% solution): 5.61 g/100 plantlings
Mass, wet, sprout, + % to control ([3]; corn, 1·10^−10% solution): 26%
Length, root ([3]; corn, 1·10^−11% solution): 5.2 cm
Length, root, + % to control ([3]; corn, 1·10^−11% solution): 15.5%
Length, sprout ([3]; corn, 1·10^−11% solution): 2.9 cm
Length, sprout, + % to control ([3]; corn, 1·10^−11% solution): 11.5%
Mass, dry, root ([3]; corn, 1·10^−11% solution): 1.30 g/100 plantlings
Mass, dry, root, + % to control ([3]; corn, 1·10^−11% solution): 17%
Mass, dry, sprout ([3]; corn, 1·10^−11% solution): 1.09 g/100 plantlings
Mass, dry, sprout, + % to control ([3]; corn, 1·10^−11% solution): 58%
Mass, wet, root ([3]; corn, 1·10^−11% solution): 9.44 g/100 plantlings
Mass, wet, root, + % to control ([3]; corn, 1·10^−11% solution): 26%
Mass, wet, sprout ([3]; corn, 1·10^−11% solution): 5.15 g/100 plantlings
Mass, wet, sprout, + % to control ([3]; corn, 1·10^−11% solution): 15%
Length, root ([3]; corn, 1·10^−12% solution): 4.6 cm
Length, root, + % to control ([3]; corn, 1·10^−12% solution): 2%
Length, sprout ([3]; corn, 1·10^−12% solution): 2.7 cm
Length, sprout, + % to control ([3]; corn, 1·10^−12% solution): 4%
Mass, dry, root ([3]; corn, 1·10^−12% solution): 1.23 g/100 plantlings
Mass, dry, root, + % to control ([3]; corn, 1·10^−12% solution): 11%
Mass, dry, sprout ([3]; corn, 1·10^−12% solution): 0.81 g/100 plantlings
Mass, dry, sprout, + % to control ([3]; corn, 1·10^−12% solution): 17%
Mass, wet, root ([3]; corn, 1·10^−12% solution): 8.65 g/100 plantlings
Mass, wet, root, + % to control ([3]; corn, 1·10^−12% solution): 15%
Mass, wet, sprout ([3]; corn, 1·10^−12% solution): 4.73 g/100 plantlings
Mass, wet, sprout, + % to control ([3]; corn, 1·10^−12% solution): 6%
